# Patent US20080255192A1, “Methods and Compositions for Selectin Inhibition” (Wyeth, priority 2007, published 2008)
# Target: T1, P-selectin/PSGL-1 interaction (Homo sapiens, UniProt P16109)
# T1 construct: comprised of the lectin and epidermal growth factor-like (EGF) domains expressed in CHO cells; made in house; host or cells: CHO cells (P-LE)
# T1 sequence (P16109 42-198): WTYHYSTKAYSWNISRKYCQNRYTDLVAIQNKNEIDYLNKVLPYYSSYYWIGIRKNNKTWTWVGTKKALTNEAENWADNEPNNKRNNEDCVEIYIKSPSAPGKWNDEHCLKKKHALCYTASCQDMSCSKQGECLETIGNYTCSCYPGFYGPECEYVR
# Experiment: Biacore P-Selectin/PSGL-1 Inhibition Assay (surface plasmon resonance)
# Format: binding
# Details: 250 uM test compound, 500 nM P.LE, immobilized PSGL-1 19ek, 10% DMSO, pH 7.4
# Protocol: Surface plasmon resonance assays were performed on a Biacore 3000 instrument (Biacore Inc. Piscataway, N.J.) at 25° C. at a flow rate of 30 μL/minute and each assay consisted of a 60-second equilibration, a 60-μL sample injection (kinject), and a 300-second dissociation.
# A purified, monomeric, truncated form of human PSGL-1, “19ek”, that contained all the necessary P-selectin binding determinants (see Goetz, et al., J. Cell Biol., 1997, 137: 509-519; and Sako, et al., Cell, 1995, 83: 323-331) was biotinylated via amine chemistry (Sulfo-NHS-LC-Biotin, Peirce) at a unique C-terminal lysine residue (see Somers, et al., Cell, 2000, 103: 467-479) and immobilized on a Biacore SA sensor chip (Biacore Inc.), using an HBS-EP buffer (Biacore Inc.), and the target 600-700 RU. The coated chip was re-equilibrated with an HBS-P buffer (Biacore Inc.) to which 1 mM CaCl2 and 1 mM MgCl2 (both from Fisher) were added to ensure sufficient calcium for the calcium-dependent interaction between the receptor and the ligand.
# Test compounds were incubated for 1 hour in a 1.1× Biacore assay buffer. Each solution was centrifuged through a 0.2 µm filter, using a 96-well plate format (Millipore). Glycyrrhizin tri-sodium salt (TCI) was prepared as a positive control in parallel with the test compounds, in the same manner described above.
# A soluble recombinant truncated form of human P-selectin, P-LE, comprised of the lectin and epidermal growth factor-like (EGF) domains expressed in CHO cells (see Somers, et al., Cell, 2000, 103: 467-479) was added to each filtered test compound solution. Final concentrations of reagents were 500 nM P.LE, 250 or 500 μM test compound (depending on structure) or 1 mM glycyrrhizin, 10% DMSO, and 1× Biacore buffer ([…], 150 mM NaCl, 1 mM CaCl2, and 1 mM MgCl2 (all reagents from Fisher)), with a pH of 7.4. Compounds active at 250 μM were titrated to further define activity. Test samples were supplied to the Biacore instrument in a 96-well plate.
# The Biacore raw data file was exported as a text file to an Excel spreadsheet, where the buffer blanks bracketing the samples were averaged for each Biacore instrument flow cell (Fc), and subtracted from the averaged uninhibited P.LE samples and from all the other samples. The reference signal from Fcl (uncoated) was then subtracted from its corresponding active (coated) signal for each injection, a process known as double referencing (see Myszka, J. Mol. Recognit., 1999, 12(5): 279-284). The percent inhibition of binding was calculated by dividing the reference-subtracted inhibited signal by the reference-subtracted uninhibited signal, subtracting this value from 1, and multiplying the resulting value by 100. The replicate percent inhibition values were averaged and expressed as the mean ±standard deviation. The inter-experiment standard deviation of calculated percent inhibitions in the Biacore assay was ±5.
row,Compound,inhibition at 250 µM
1,"O=C(O)c1c(O)c(C2(c3ccsc3)CC2)nc2c(C(F)(F)F)cccc12 [Compound 59, 3-hydroxy-2-(1-(thiophen-3-yl)cyclopropyl)-8-(trifluoromethyl)quinoline-4-carboxylic acid]",≤ 10%
2,"O=C(O)c1c(O)c(C2(c3cccs3)CC2)nc2c(C(F)(F)F)cccc12 [Compound 60, 3-hydroxy-2-(1-(thiophen-2-yl)cyclopropyl)-8-(trifluoromethyl)quinoline-4-carboxylic acid]",15%
3,"O=C(O)c1c(O)c(C2(c3ccc(F)cc3)CC2)nc2c(C(F)(F)F)cccc12 [Compound 61, 2-(1-(4-fluorophenyl)cyclopropyl)-3-hydroxy-8-(trifluoromethyl)quinoline-4-carboxylic acid]",56%
4,"O=C(O)c1c(O)c(C2(c3ccccc3C(F)(F)F)CC2)nc2c(C(F)(F)F)cccc12 [Compound 63, 3-hydroxy-8-(trifluoromethyl)-2-(1-(2-(trifluoromethyl)phenyl)cyclopropyl)quinoline-4-carboxylic acid]",17%
5,"CCc1ccc2c(C(=O)O)c(O)c(C3(c4ccc(F)cc4)CC3)nc2c1 [Compound 66, 7-ethyl-2-(1-(4-fluorophenyl)cyclopropyl)-3-hydroxyquinoline-4-carboxylic acid]",≤ 10%
6,"O=C(O)c1c(O)c(C2(c3ccc(F)cc3)CC2)nc2ccc(Cl)cc12 [Compound 67, 6-chloro-2-(1-(4-fluorophenyl)cyclopropyl)-3-hydroxyquinoline-4-carboxylic acid]",≤ 10%
7,"O=C(O)c1c(O)c(C2(c3ccc(F)cc3)CC2)nc2cc(Cl)ccc12 [Compound 68, 7-chloro-2-(1-(4-fluorophenyl)cyclopropyl)-3-hydroxyquinoline-4-carboxylic acid]",≤ 10%
8,"CCc1ccc2nc(C3(c4ccc(F)cc4)CC3)c(O)c(C(=O)O)c2c1 [Compound 70, 6-ethyl-2-(1-(4-fluorophenyl)cyclopropyl)-3-hydroxyquinoline-4-carboxylic acid]",10%
9,"O=C(O)c1c(O)c(C2(c3ccc(F)cc3)CC2)nc2c(-c3ccsc3)cccc12 [Compound 71, 2-(1-(4-fluorophenyl)cyclopropyl)-3-hydroxy-8-(thiophen-3-yl)quinoline-4-carboxylic acid]",64%
10,"O=C(O)c1c(O)c(C2(c3ccc(F)cc3)CC2)nc2ccc(Br)cc12 [Compound 72, 6-bromo-2-(1-(4-fluorophenyl)cyclopropyl)-3-hydroxyquinoline-4-carboxylic acid]",12%
11,"O=C(O)c1c(O)c(C2(c3ccc(F)cc3)CC2)nc2cc(Br)ccc12 [Compound 74, 7-bromo-2-(1-(4-fluorophenyl)cyclopropyl)-3-hydroxyquinoline-4-carboxylic acid]",10%
12,"O=C(O)c1c(O)c(C2(c3ccc(F)cc3)CC2)nc2c(C(O)(C(F)(F)F)C(F)(F)F)cccc12 [Compound 76, 2-(1-(4-fluorophenyl)cyclopropyl)-8-(1,1,1,3,3,3-hexafluoro-2-hydroxypropan-2-yl)-3-hydroxyquinoline-4-carboxylic acid]",43%
13,O=C(O)c1c(O)c(C2(c3ccc(F)cc3)CC2)nc2c(-c3ccccc3)cccc12 [Compound 77],37%
14,"COc1ccc2nc(C3(c4ccc(F)cc4)CC3)c(O)c(C(=O)O)c2c1 [Compound 79, 2-(1-(4-fluorophenyl)cyclopropyl)-3-hydroxy-6-methoxyquinoline-4-carboxylic acid]",≤ 10%
15,"O=C(O)c1c(O)c(C2(c3ccc(F)cc3)CC2)nc2c3c(ccc12)CCCC3 [Compound 80, 2-(1-(4-fluorophenyl)cyclopropyl)-3-hydroxy-7,8,9,10-tetrahydrobenzo[h]quinoline-4-carboxylic acid]",59%
16,"Cc1ccc(C2(c3nc4c(C(O)(C(F)(F)F)C(F)(F)F)cccc4c(C(=O)O)c3O)CC2)cc1 [Compound 85, 8-(1,1,1,3,3,3-hexafluoro-2-hydroxypropan-2-yl)-3-hydroxy-2-(1-p-tolylcyclopropyl)quinoline-4-carboxylic acid]",59%
17,"CCc1cccc2c(C(=O)O)c(O)c(C3(c4ccc(C(F)(F)F)cc4)CC3)nc12 [Compound 87, 8-ethyl-3-hydroxy-2-(1-(4-(trifluoromethyl)phenyl)cyclopropyl)quinoline-4-carboxylic acid]",61%

# Continued, values first:
row,inhibition at 250 µM,Compound
1,67%,"CC(C)c1cccc2c(C(=O)O)c(O)c(C3(c4ccc(F)cc4)CC3)nc12 [Compound 62, 2-(1-(4-fluorophenyl)cyclopropyl)-3-hydroxy-8-isopropylquinoline-4-carboxylic acid]"
2,20%,"Cc1cc(C)c2nc(C3(c4ccccc4)CC3)c(O)c(C(=O)O)c2c1 [Compound 64, 3-hydroxy-6,8-dimethyl-2-(1-phenylcyclopropyl)quinoline-4-carboxylic acid]"
3,31%,"CCc1cccc2c(C(=O)O)c(O)c(C3(c4ccc(F)cc4)CC3)nc12 [Compound 65, 8-ethyl-2-(1-(4-fluorophenyl)cyclopropyl)-3-hydroxyquinoline-4-carboxylic acid]"
4,11%,"Cc1cc(C)c2nc(C3(c4ccc(F)cc4)CC3)c(O)c(C(=O)O)c2c1 [Compound 69, 2-(1-(4-fluorophenyl)cyclopropyl)-3-hydroxy-6,8-dimethylquinoline-4-carboxylic acid]"
5,≤ 10%,"O=C(O)c1c(O)c(C2(c3ccc(F)cc3)CC2)nc2c(Cl)cccc12 [Compound 73, 8-chloro-2-(1-(4-fluorophenyl)cyclopropyl)-3-hydroxyquinoline-4-carboxylic acid]"
6,≤ 10%,"O=C(O)c1c(O)c(C2(c3ccc(F)cc3)CC2)nc2c(Br)cccc12 [Compound 75, 8-bromo-2-(1-(4-fluorophenyl)cyclopropyl)-3-hydroxyquinoline-4-carboxylic acid]"
7,10%,"Cc1cccc2c(C(=O)O)c(O)c(C3(c4ccc(F)cc4)CC3)nc12 [Compound 78, 2-(1-(4-fluorophenyl)cyclopropyl)-3-hydroxy-8-methylquinoline-4-carboxylic acid]"
8,23%,"Cc1ccc2c(C(=O)O)c(O)c(C3(c4ccc(F)cc4)CC3)nc2c1C [Compound 81, 2-(1-(4-fluorophenyl)cyclopropyl)-3-hydroxy-7,8-dimethylquinoline-4-carboxylic acid]"
9,38%,"CCc1cccc2c(C(=O)O)c(O)c(C3(c4ccc(C)cc4)CC3)nc12 [Compound 82, 8-ethyl-2-(1-p-tolylcyclopropyl)-3-hydroxyquinoline-4-carboxylic acid]"
10,12%,"Cc1ccc(C2(c3nc4c(C)cccc4c(C(=O)O)c3O)CC2)cc1 [Compound 83, 8-methyl-2-(1-p-tolylcyclopropyl)-3-hydroxyquinoline-4-carboxylic acid]"
11,11%,"Cc1ccc(C2(c3nc4c(C)cc(C)cc4c(C(=O)O)c3O)CC2)cc1 [Compound 84, 3-hydroxy-6,8-dimethyl-2-(1-p-tolylcyclopropyl)quinoline-4-carboxylic acid]"
12,54%,"Cc1ccc(C2(c3nc4c(C(C)C)cccc4c(C(=O)O)c3O)CC2)cc1 [Compound 86, 3-hydroxy-8-isopropyl-2-(1-p-tolylcyclopropyl)quinoline-4-carboxylic acid]"
